Measured values from PubChem BioAssay (NCI).
“And” between values parts separate entries of the source, which are not always exact repeats. Equal entries are not always repeated.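 Results reflect a 48-hour exposure of cells in 96-well plates to compound at five concentrations. GI50 = concentration required for 50% inhibition of growth. Definition used: TGI = concentration required for complete inhibition of growth.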

Columns and labels:
Assay in all cases: NCI tumour cell line growth inhibition, 48 h
[1] = system: HCT-116 colon
[2] = system: HOP-92 NSCLC
[3] = system: NCI-H226 lung
[4] = system: NCI-H23 lung
[5] = system: NCI-H522 lung
[6] = system: OVCAR-5 ovarian
[7] = system: SK-MEL-5 melanoma
[8] = system: SNB-19 CNS
[9] = system: SR leukemia
[10] = system: U251 CNS

Structure (SMILES) | GI50 [1] | TGI [1] | GI50 [2] | TGI [2] | GI50 [3] | TGI [3] | GI50 [4] | TGI [4] | GI50 [5] | TGI [5] | GI50 [6] | TGI [6] | GI50 [7] | TGI [7] | GI50 [8] | TGI [8] | GI50 [9] | TGI [9] | GI50 [10] | TGI [10]
COc1ccc(-c2nc3c(c(=O)n2C(C)=O)C(c2ccc(Cl)cc2)c2sc4c(Cl)cccc4c2O3)cc1 (stereo not given) | 0.341 µM | 1.38 µM | 1.33 µM | 4.58 µM | 0.329 µM | 2.24 µM | 0.343 µM | 2.09 µM | 0.259 µM | 1.48 µM | 1.2 µM | 3.4 µM | 0.297 µM | 1.11 µM | 0.413 µM | 2.01 µM | 0.354 µM | 5.05 µM | 0.483 µM | 1.76 µM
Cc1cc(NC(=O)NC(=O)c2ccccc2N(C)C)ccc1Oc1ncc(Br)cn1 | 0.389 µM | 50.2 µM | 5.5 µM | 46.2 µM | 1.88 µM | > 90 µM | 2.51 µM | 53.4 µM | 0.164 µM | 0.408 µM and 0.587 µM | 2.61 µM | > 67.5 µM |  | 4.11 µM | 0.749 µM | > 81.5 µM | 0.135 µM |  | 0.436 µM | 39.8 µM
CCCCCCCCCC(=O)Oc1cccc2onc(C)c12 |  | > 100 µM |  | > 100 µM |  | > 100 µM |  | > 100 µM |  | > 100 µM |  | > 100 µM |  | > 100 µM |  | > 100 µM |  | > 100 µM |  | > 100 µM
NC(=O)c1c[se]c(C2OC(COP(=O)(O)CP(=O)(O)OCC3OC(n4cnc5c(N)ncnc54)C(O)C3O)C(O)C2O)n1 (stereo not given) |  | > 100 µM |  | > 100 µM |  | > 100 µM |  | > 100 µM |  | > 100 µM |  | > 100 µM |  | > 100 µM |  | > 100 µM |  | > 100 µM |  | > 100 µM
COc1ccc(NC(=O)c2sc3nc4c(cc3c2N)CCCC4)cc1 | 0.355 µM | 11 µM | 10.6 µM | 76.3 µM |  |  | 2.55 µM | > 100 µM | 0.234 µM | 0.772 µM | 7.28 µM | > 100 µM | 0.355 µM | 11 µM | 1.57 µM | > 100 µM | 0.3 µM | 16.3 µM | 0.652 µM | > 100 µM
COc1ccc(C(=O)C[C@]2(O)C(=O)Nc3c(Cl)ccc(Cl)c32)cc1 | 0.406 µM | 24.6 µM | 1.41 µM | > 92.3 µM | 3.02 µM | > 100 µM | 1.51 µM | > 100 µM | 0.317 µM |  | 2.43 µM | > 100 µM | 0.573 µM | 22.3 µM | 1.05 µM | > 100 µM | 0.243 µM | > 100 µM | 0.508 µM | > 100 µM
CCC(=O)c1cc([N+](=O)[O-])c(Br)s1 | 1.68 µM | 3.14 µM | 1.96 µM | 4.8 µM | 18.7 µM | 35.6 µM | 17.3 µM | 49.2 µM | 0.904 µM | 2.2 µM | 16.6 µM | 32.1 µM | 16.5 µM | 30.4 µM | 17.4 µM | 35.3 µM | 1.2 µM | 3.71 µM | 1.85 µM | 4.02 µM
O=C(O)[C@@H]1CCCC[C@@H]1C(=O)N(C1CCCCC1)C1CCCCC1 |  | > 100 µM |  | > 100 µM |  | > 100 µM |  | > 100 µM |  | > 100 µM |  | > 100 µM |  | > 100 µM |  |  |  | > 100 µM |  | > 100 µM
Cc1n(Cc2ccc3ccccc3c2)c(Cl)c(Cl)[n+]1Cc1ccc2ccccc2c1 | 1.62 µM | 3.28 µM | 1.17 µM | 2.94 µM | 2.48 µM | 6.97 µM | 1.66 µM | 3.86 µM | 1.52 µM | 3.9 µM | 1.65 µM | 3.89 µM | 1.69 µM | 3.08 µM | 1.57 µM | 2.96 µM | 1.87 µM | 4.98 µM | 1.79 µM | 3.6 µM
c1ccc(CC(NCCNC(Cc2ccccc2)c2ccccc2)c2ccccc2)cc1 (stereo not given) | 0.2 µM | 0.486 µM | 0.369 µM | 1.48 µM | 1.12 µM | 2.79 µM | 0.589 µM | 2.55 µM | 0.32 µM | 1.06 µM | 1.24 µM | 3.57 µM | 0.271 µM | 0.779 µM | 0.964 µM | 4.15 µM | 0.243 µM | 0.587 µM | 0.406 µM | 1.43 µM
O=C(Cc1ccc(/C=C/C(=O)c2ncc[nH]2)cc1)Nc1ccc(C(F)(F)F)cc1 | 0.694 µM | 1.74 µM | 4.89 µM | 11.1 µM | 6.11 µM | 13.1 µM | 3.42 µM | 9.26 µM | 4.87 µM | 12.4 µM | 4.89 µM | 10.2 µM | 5.55 µM | 10.2 µM | 2.79 µM | 7.75 µM | 0.843 µM | > 33.3 µM | 1.22 µM | 4.11 µM
COC(=O)[C@H](Cc1ccccc1)NC(=O)c1csc([C@@H](C[C@H](C(C)C)N(C)C(=O)[C@@H](NC(=O)[C@H]2CCCN2C)C2CC2)OC(C)=O)n1 | 0.138 µM | 21.4 µM | 0.463 µM | > 9.56 µM | 3.93 µM | > 33.3 µM | 1.46 µM | > 33.3 µM | 0.0783 µM | > 33.3 µM | 1.66 µM | > 33.3 µM | 0.671 µM | 8.99 µM | 0.943 µM | > 33.3 µM | 0.0103 µM | > 33.3 µM | 0.521 µM | > 33.3 µM
C1=C2CNCC3=Cc4ccc5ccccc5c4OC23Oc2c1ccc1ccccc21 | 3.01 µM | 13.1 µM | 2.86 µM | 17.1 µM | 10.6 µM | 27.6 µM | 6.94 µM | 32 µM | 3.01 µM | 13.1 µM |  |  | 3.15 µM | 13.9 µM | 6.95 µM | 29.3 µM | 2.2 µM | 5.4 µM | 3.26 µM | 14.8 µM
NS(=O)(=O)c1ccc(NC(=O)c2cccn3c(=O)c4ccccc4nc23)cc1 |  | > 100 µM |  | > 100 µM |  | > 100 µM |  | > 100 µM |  | > 100 µM |  |  |  | > 100 µM |  | > 100 µM |  | > 100 µM |  | > 100 µM
COc1ccc(CC2=NCCc3cc(OC)c(OC)cc32)cc1Br |  |  |  | 33.7 µM |  | 50.9 µM |  | > 100 µM |  | 86.6 µM |  | 8.32 µM |  | 25.3 µM |  | > 100 µM |  | 91.1 µM |  | > 100 µM
